According to US11866414B2, “Substituted heterocyclic compounds” (BRISTOL-MYERS SQUIBB COMPANY, priority 2021, dated 2024):
One block for each compound: values may come before it.

How the values were obtained:
[1] = system: IFNα-induced STAT phosphorylation (pSTAT5); assay: IFNα-induced STAT phosphorylation in human whole blood; assay type: cell-based; details: 1 h compound, 1000 U/mL IFNα A/D 15 min, CD3 positive population, read-out: Human Whole blood IFNa pSTAT5 IC50
Procedure: IFNα-Induced STAT Phosphorylation in Human Whole Blood
After an hour long incubation with compound, human whole blood (drawn with ACD-A as anticoagulant) was stimulated with 1000 U/mL recombinant human IFNα A/D (R&D Systems 11200-2) for 15 min. The stimulation was stopped by adding Fix/Lyse buffer (BD 558049). Cells were stained with a CD3 FITC antibody (BD 555916), washed, and permeabilized on ice using Perm III buffer (BD 558050). Cells were then stained with an Alexa-Fluor 647 pSTAT5 (pY694) antibody (BD 612599) for 60 min prior to analysis on the iQue Plus. The amount of pSTAT5 expression was quantitated by median fluorescence intensity after gating on the CD3 positive population.

in vitro = details: human, Caco-2, pH 7.4

SMILES: [2H]C([2H])([2H])NC(=O)c1nnc(NC(=O)[C@@H]2C[C@@H]2F)cc1Nc1nccc(-c2cnn(C3CC3)n2)c1OC [Example 44, 4-((4-(2-cyclopropyl-2H-1,2,3-triazol-4-yl)-3-methoxypyridin-2-yl)amino)-6-((1S,2S)-2-fluorocyclopropane-1-carboxamido)-N-(methyl-d3)pyridazine-3-carboxamide]
IC50 [1]: 40 nM | Papp A→B at 2 h, 3 μM (in vitro): 24.6 ×10⁻⁶ cm/s | efflux ratio at 2 h, 3 μM (in vitro): 0.5

SMILES: [2H]C([2H])([2H])NC(=O)c1nnc(NC(=O)CCCF)cc1Nc1nccc(-c2cnn(C)n2)c1OC [Example 45, 6-(4-fluorobutanamido)-4-{[3-methoxy-4-(2-methyl-2H-1,2,3-triazol-4-yl)pyridin-2-yl]amino}-N—(^2H3)methylpyridazine-3-carboxamide]
IC50 [1]: 60 nM | Papp A→B at 2 h, 3 μM (in vitro): 5.8 ×10⁻⁶ cm/s | efflux ratio at 2 h, 3 μM (in vitro): 0.5

SMILES: [2H]C([2H])([2H])NC(=O)c1nnc(NC(=O)C2CC2)cc1Nc1nc(C)cc(-c2cnn(C)n2)c1OC [Example 46, 6-(cyclopropanecarboxamido)-4-((3-methoxy-6-methyl-4-(2-methyl-2H-1,2,3-triazol-4-yl)pyridin-2-yl)amino)-N-(methyl-d3)pyridazine-3-carboxamide]
IC50 [1]: 10 nM | Papp A→B at 2 h, 3 μM (in vitro): 38.1 ×10⁻⁶ cm/s | efflux ratio at 2 h, 3 μM (in vitro): 0.4

SMILES: [2H]C([2H])([2H])NC(=O)c1nnc(NC(=O)[C@@H]2C[C@H]2C)cc1Nc1nc(C)cc(-c2cnn(C)n2)c1OC [Example 47, 4-((3-methoxy-6-methyl-4-(2-methyl-2H-1,2,3-triazol-4-yl)pyridin-2-yl)amino)-N-(methyl-d3)-6-((1R,2R)-2-methylcyclopropane-1-carboxamido)pyridazine-3-carboxamide]
IC50 [1]: 110 nM | Papp A→B at 2 h, 3 μM (in vitro): 34 ×10⁻⁶ cm/s | efflux ratio at 2 h, 3 μM (in vitro): 0.3

SMILES: [2H]C([2H])([2H])NC(=O)c1nnc(NC(=O)[C@H]2C[C@@H]2C)cc1Nc1nc(C)cc(-c2cnn(C)n2)c1OC [Example 48, 4-((3-methoxy-6-methyl-4-(2-methyl-2H-1,2,3-triazol-4-yl)pyridin-2-yl)amino)-N-(methyl-d3)-6-((1S,2S)-2-methylcyclopropane-1-carboxamido)pyridazine-3-carboxamide]
IC50 [1]: 6800 nM | Papp A→B at 2 h, 3 μM (in vitro): 30.1 ×10⁻⁶ cm/s | efflux ratio at 2 h, 3 μM (in vitro): 0.3

SMILES: [2H]C([2H])([2H])NC(=O)c1nnc(N2CCN(C(C)C)C2=O)cc1Nc1cccc(-c2cnn(C)n2)c1OC [Example 50, 6-(3-isopropyl-2-oxoimidazolidin-1-yl)-4-((2-methoxy-3-(2-methyl-2H-1,2,3-triazol-4-yl)phenyl)amino)-N-(methyl-d3)pyridazine-3-carboxamide]
IC50 [1]: 170 nM | Papp A→B at 2 h, 3 μM (in vitro): 26.5 ×10⁻⁶ cm/s | efflux ratio at 2 h, 3 μM (in vitro): 0.4

SMILES: [2H]C([2H])([2H])NC(=O)c1nnc(NC(=O)C2CC2)cc1Nc1nccc(-c2cnn(C([2H])([2H])[2H])n2)c1OC [Example 57, 6-(cyclopropane-carboxamido)-4-((3-methoxy-4-(2-(methyl-d3)-2H-1,2,3-triazol-4-yl)pyridin-2-yl)amino)-N-(methyl-d3)pyridazine-3-carboxamide]
IC50 [1]: 10 nM | Papp A→B at 2 h, 3 μM (in vitro): 81.6 ×10⁻⁶ cm/s | efflux ratio at 2 h, 3 μM (in vitro): 0.4

SMILES: [2H]C([2H])([2H])NC(=O)c1nnc(NC(=O)N(C)C)cc1Nc1nccc(-c2cnn(C3CC3)n2)c1OC [Example 61, 4-((4-(2-cyclopropyl-2H-1,2,3-triazol-4-yl)-3-methoxypyridin-2-yl)amino)-6-(3,3-dimethylureido)-N-(methyl-d3)pyridazine-3-carboxamide]
IC50 [1]: 480 nM | Papp A→B at 2 h, 3 μM (in vitro): 38.3 ×10⁻⁶ cm/s | efflux ratio at 2 h, 3 μM (in vitro): 0.4

SMILES: [2H]C([2H])([2H])NC(=O)c1nnc(NC(=O)[C@@H]2C[C@@H]2F)cc1Nc1nc(C)cc(-c2cnn(C)n2)c1OC [Example 69, 6-((1S,2S)-2-fluorocyclopropane-1-carboxamido)-4-((3-methoxy-6-methyl-4-(2-methyl-2H-1,2,3-triazol-4-yl)pyridin-2-yl)amino)-N-(methyl-d3)pyridazine-3-carboxamide]
IC50 [1]: 3 nM | Papp A→B at 2 h, 3 μM (in vitro): 36.2 ×10⁻⁶ cm/s | efflux ratio at 2 h, 3 μM (in vitro): 0.6

The next lines start with the values.

IC50 [1]: 20 nM | Papp A→B at 2 h, 3 μM (in vitro): 3.9 ×10⁻⁶ cm/s | efflux ratio at 2 h, 3 μM (in vitro): < 0.4
SMILES: [2H]C([2H])([2H])NC(=O)c1nnc(Nc2ccccn2)cc1Nc1nccc(-c2cnn(C)n2)c1OC [Example 63, 4-((3-methoxy-4-(2-methyl-2H-1,2,3-triazol-4-yl)pyridin-2-yl)amino)-N-(methyl-d3)-6-(pyridin-2-ylamino)pyridazine-3-carboxamide]

IC50 [1]: 250 nM | Papp A→B at 2 h, 3 μM (in vitro): 1.7 ×10⁻⁶ cm/s | efflux ratio at 2 h, 3 μM (in vitro): < 0.9
SMILES: [2H]C([2H])([2H])NC(=O)c1nnc(Nc2cc(C)nc(C)n2)cc1Nc1nccc(-c2cnn(C)n2)c1OC [Example 64, 6-[(2,6-dimethylpyrimidin-4-yl)amino]-4-{[3-methoxy-4-(2-methyl-2H-1,2,3-triazol-4-yl)pyridin-2-yl]amino}-N—(^2H3)methylpyridazine-3-carboxamide]

IC50 [1]: 4 nM | Papp A→B at 2 h, 3 μM (in vitro): 11.7 ×10⁻⁶ cm/s | efflux ratio at 2 h, 3 μM (in vitro): 1.6
SMILES: [2H]C([2H])([2H])NC(=O)c1nnc(Nc2ccc(C(C)(C)O)cn2)cc1Nc1nccc(-c2cnn(C)n2)c1OC [Example 65, 6-{[5-(2-hydroxypropan-2-yl)pyridin-2-yl]amino}-4-{[3-methoxy-4-(2-methyl-2H-1,2,3-triazol-4-yl)pyridin-2-yl]amino}-N—(^2H3)methylpyridazine-3-carboxamide]

IC50 [1]: 0.2 nM | Papp A→B at 2 h, 3 μM (in vitro): 22.2 ×10⁻⁶ cm/s | efflux ratio at 2 h, 3 μM (in vitro): 0.3
SMILES: [2H]C([2H])([2H])NC(=O)c1nnc(Nc2ccc(N3CCOCC3)cn2)cc1Nc1nccc(-c2cnn(C)n2)c1OC [Example 66, 4-{[3-methoxy-4-(2-methyl-2H-1,2,3-triazol-4-yl)pyridin-2-yl]amino}-N—(^2H3)methyl-6-{[5-(morpholin-4-yl)pyridin-2-yl]amino}pyridazine-3-carboxamide]

IC50 [1]: 86 nM | Papp A→B at 2 h, 3 μM (in vitro): 28.6 ×10⁻⁶ cm/s | efflux ratio at 2 h, 3 μM (in vitro): 0.9
SMILES: [2H]C([2H])([2H])NC(=O)c1nnc(Nc2cc(C(C)(C)O)ccn2)cc1Nc1nccc(-c2cnn(C)n2)c1OC [Example 67, 6-{[4-(2-hydroxypropan-2-yl)pyridin-2-yl]amino}-4-{[3-methoxy-4-(2-methyl-2H-1,2,3-triazol-4-yl)pyridin-2-yl]amino}-N—(^2H3)methylpyridazine-3-carboxamide]

IC50 [1]: 290 nM | Papp A→B at 2 h, 3 μM (in vitro): 59.4 ×10⁻⁶ cm/s | efflux ratio at 2 h, 3 μM (in vitro): 0.4
SMILES: [2H]C([2H])([2H])NC(=O)c1nnc(Nc2cc(C)n(C)n2)cc1Nc1nccc(-c2cnn(C)n2)c1OC [Example 68, 6-[(1,5-dimethyl-1H-pyrazol-3-yl)amino]-4-{[3-methoxy-4-(2-methyl-2H-1,2,3-triazol-4-yl)pyridin-2-yl]amino}-N—(^2H3)methylpyridazine-3-carboxamide]
